Laboratory results as given in patent US12168929B2, “Quantifying zonal flow in multi-lateral wells via taggants of fluids” (Saudi Arabian Oil Company, priority 2023, dated 2024).
≈ marks a conversion by molar mass, not a printed value.

Tests used:
[1] = cited from earlier work
[2] = Solubility of Lumogen F dyes in organic solvents (toluene); assay type: physicochemical; conditions: organic solvent or mixture
[3] = Methanol solubility of LR versus non-polar crude oil fractions; assay type: physicochemical; conditions: non-polar crude oil fractions showed poor MeOH solubility
Text: To enhance the detection sensitivity further for LR, the fluorescent non-polar fractions of crude oil coeluted with LR during the chromatography may be removed or partially removed from the resulting effluent mixtures. While the polar components of crude oil can be effectively separated using the gravity column chromatography over silica gel with 100% DCM, the separation of the non-polar crude oil components remains a challenge because of its similar polarity with LR, identified by the Rf value on TLC. Therefore, explored was the second step of purification and isolation of the product by utilizing the solubility difference between LR and the non-polar crude oil components. […] Therefore, in subsequent work, DCM from the resulting effluent was evaporated and then the dark viscous residues were re-dissolved in 1 mL of MeOH followed by sonication for 30 seconds.

Row | SMILES | solubility [2] [µg/mL] | solubility in organic solvents [1] | other results
1 | CCN(CC)c1ccc2nc3c4ccccc4c(=O)cc-3oc2c1 [NR, Nile Red] |  |  | solubility in organic solvents such as DCM and toluene ([1]; DCM, toluene): highly soluble
2 | CC(C)COC(=O)c1ccc2c3ccc(C#N)c4c(C(=O)OCC(C)C)ccc(c5ccc(C#N)c1c52)c43 [LY, bis(2-methylpropyl) 4,10-dicyanoperylene-3,9-dicarboxylate] | < 1000 |  | 
3 | COc1cc(/C=C/C(=O)CC(=O)/C=C/c2ccc(O)c(OC)c2)ccc1O [curcumin] |  | soluble | 
4 | CC(C)c1cccc(C(C)C)c1N1C(=O)c2cc(Oc3ccccc3)c3c4c(Oc5ccccc5)cc5c6c(cc(Oc7ccccc7)c(c7c(Oc8ccccc8)cc(c2c37)C1=O)c64)C(=O)N(c1c(C(C)C)cccc1C(C)C)C5=O [LR, 7,18-bis[2,6-di(propan-2-yl)phenyl]-11,14,22,26-tetraphenoxy-7,18-diazaheptacyclo[14.6.2.2^2,5.0^3,12.0^4,9.0^13,23.0^20,24]hexacosa-1(22),2(26),3,5(25),9,11,13,15,20,23-decaene-6,8,17,19-tetrone] | 80000 (≈ 74.1 mM) |  | solubility in methanol (MeOH) [3]: moderately soluble
5 | CCCCC(CC)CN1C(=O)c2ccc(OC)c3c(OC)ccc(c23)C1=O (centres unmarked) [LV, 2-(2-ethylhexyl)-6,7-dimethoxybenzo[de]isoquinoline-1,3-dione] | 10000 (≈ 27.1 mM) |  | 
6 | CC[N+](CC)=c1ccc2nc3c(cc(N)c4ccccc43)oc-2c1 [NB, Nile Blue] |  | relatively low | solubility in water ([1]; water): highly soluble
